In US20230159453A1 (COCRYSTAL PHARMA, INC., priority 2020, published 2023):
pIC50: −log10 of the molar value. Values joined by “and” are separate entries in the source; they are usually repeats but may differ in a detail not shown here. Identical values can stand only once.

Each molecule was assayed against SARS2 protease (Severe acute respiratory syndrome coronavirus 2, UniProt P0DTD1) (assay: SARS-CoV-2 protease inhibition assay (SARS2 FRET protease assay)). Conditions: SARS-CoV-2 protease 25 nM, FRET, peptide substrate 1.3 μM, 30 minutes at 30° C., compounds 20 μM to 1.0 nM; read-out: IC50.
Assay type: biochemical
For `CCCCC[C@H](NC(=O)OC(c1ccccc1)C(C)(C)c1cccc(Cl)c1)C(=O)N[C@@H](C[C@@H]1CCNC1=O)C(=O)C(=O)NC1CC1` (stereo partly shown) [Compound C289], the pIC50 was 6.43.
In the case of `O=C(N[C@@H](CC1CCCCC1)C(=O)N[C@@H](C[C@@H]1CCNC1=O)C(=O)C(=O)NC1CC1)OC(c1cccc(Cl)c1)C1(c2cccc(Cl)c2)CC1` (stereo partly shown) [Compound C213], the pIC50 was 6.59.
`CCCC1CCC(OC(=O)NC(CC(C)C)C(=O)NC(CC2CC3(CCN(C(C)=O)CC3)NC2=O)C(O)P(=O)(OCC)OCC)CC1` (stereo in doubt) [Compound C91, 4-Propylcyclohexyl ((2R)-1-((3-(8-acetyl-2-oxo-1,8-diazaspiro[4.5]decan-3-yl)-1-(diethoxyphosphoryl)-1-hydroxypropan-2-yl)amino)-4-methyl-1-oxopentan-2-yl)carbamate] showed a pIC50 of under 4.70.
Work on `CC(C)C[C@H](NC(=O)OC1CCN(C(=O)OC(C)(C)C)c2ccccc21)C(=O)N[C@H](C=O)C[C@@H]1CCNC1=O` (stereo partly drawn) [Compound C59, Tert-butyl 4-((((S)-4-methyl-1-oxo-1-(((S)-1-oxo-3-((S)-2-oxopyrrolidin-3-yl)propan-2-yl)amino)pentan-2-yl)carbamoyl)oxy)-3,4-dihydroquinoline-1(2H)-carboxylate] yielded a pIC50 of 7.00.
`CC(C)C[C@H](NC(=O)N(Cc1ccccc1)C1CCN(C(=O)OC(C)(C)C)CC1)C(=O)N[C@@H](C[C@@H]1CCNC1=O)C(O)S(=O)(=O)O` (stereo partly drawn) [Compound C40, (2S)-2-((S)-2-(3-benzyl-3-(1-(tert-butoxycarbonyl)piperidin-4-yl)ureido)-4-methylpentanamido)-1-hydroxy-3-((S)-2-oxopyrrolidin-3-yl)propane-1-sulfonate] was tested, and the pIC50 was 6.76 and 6.65.
For `CC(OC(=O)N[C@@H](CC1CCCCC1)C(=O)N[C@H](C=O)CCC(=O)N(C)CCc1ccccc1)c1cccc(Cl)c1` (stereo partly shown) [Compound C25], the pIC50 was 4.95.
Work on `CC(C)(C)C(=O)N1CCC2(CC1)CC(CC(NC(=O)[C@H](CC1CCCCC1)NC(=O)OC1CCCC1Cc1cccc(Cl)c1)C(=O)C(=O)NC1CC1)C(=O)N2` (stereo partly drawn) [Compound C210, 2-(3-Chlorobenzyl) cyclopentyl ((2S)-3-cyclohexyl-1-((4-(cyclopropylamino)-3,4-dioxo-1-(2-oxo-8-pivaloyl-1,8-diazaspiro[4.5]decan-3-yl)butan-2-yl)amino)-1-oxopropan-2-yl) carbamate] yielded a pIC50 of 5.58.
With `O=C[C@H](CC1CC2(CCOCC2)NC1=O)NC(=O)[C@H](CC1CCCCC1)NC(=O)OCc1cccc(Cl)c1` (stereo partly drawn) [Compound C200, 3-Chlorobenzyl ((2S)-3-cyclohexyl-1-oxo-1-(((2S)-1-oxo-3-(2-oxo-8-oxa-1-azaspiro[4.5]decan-3-yl)propan-2-yl)amino)propan-2-yl)carbamate] the pIC50 was 9.19.
Molecule `CC(C)C[C@H](NC(=O)OC(C)Cc1ccccc1)C(=O)N[C@@H](C[C@@H]1CCNC1=O)C(O)S(=O)(=O)O` (stereo partly drawn) [Compound C50, (2S)-1-Hydroxy-2-((2S)-4-methyl-2-((((1-phenylpropan-2-yl)oxy)carbonyl)amino)pentanamido)-3-((S)-2-oxopyrrolidin-3-yl)propane-1-sulfonate] has a pIC50 of 6.92.
`Cc1cccc(C(OC(=O)N[C@@H](CC2CCCCC2)C(=O)N[C@H](C=O)C[C@@H]2CCNC2=O)C(C)(C)c2cccc(Cl)c2)c1` (stereo partly drawn) [Compound C136, 2-(3-Chlorophenyl)-2-methyl-1-(m-tolyl) propyl ((S)-3-cyclohexyl-1-oxo-1-(((S)-1-oxo-3-((S)-2-oxopyrrolidin-3-yl)propan-2-yl)amino)propan-2-yl) carbamate] gave a pIC50 of 9.35.
With `CC(C)C[C@H](NC(=O)OC1(Cc2cccc(OCc3ccccc3)c2)CC1)C(=O)N[C@@H](CC1CCNC1=O)C(O)S(=O)(=O)O` (stereo partly drawn) [Compound C76, Sodium (2S)-2-((S)-2-(((1-(3-(benzyloxy)benzyl)cyclopropoxy)carbonyl)amino)-4-methylpentanamido)-1-hydroxy-3-((S)-2-oxopyrrolidin-3-yl)propane-1-sulfonate] the pIC50 was 6.42.
`CC(C)C[C@H](NC(=O)OC(c1ccccc1)C1(c2cccc(Cl)c2)CCCC1)C(=O)N[C@H](C=O)C[C@@H]1CCNC1=O` (stereo partly shown) [Compound C278] was tested, and the pIC50 was 7.70.
`CC1C[C@H](NC(=O)[C@H](CC2CCCCC2)NC(=O)OCc2cccc(Cl)c2)C(O)N(CCc2ccccc2)C1=O` (stereo partly shown) [Compound C4] gave a pIC50 of under 3.70.
With `CC(C)C[C@H](NC(=O)OC(c1ccccc1)C(C)(C)c1cccc(Cl)c1)C(=O)N[C@@H](C[C@@H]1CCNC1=O)C(=O)CO` (stereo partly drawn) [Compound C236, 2-(3-Chlorophenyl)-2-methyl-1-phenylpropyl ((S)-1-(((S)-4-hydroxy-3-oxo-1-((S)-2-oxopyrrolidin-3-yl)butan-2-yl)amino)-4-methyl-1-oxopentan-2-yl)carbamate] the pIC50 was 6.57.
Molecule `O=C(N[C@@H](CC1CCCCC1)C(=O)N[C@@H](C[C@@H]1CCNC1=O)C(=O)C(=O)NC1CC1)O[C@@H]1CCC[C@@H]1Cc1cccc(Cl)c1` [Compound C265] has a pIC50 of 6.08.
Molecule `CC(C)C(C)(C)C(NC(=O)OCc1ccccc1)C(=O)N[C@H](C=O)C[C@@H]1CCNC1=O` (stereo partly drawn) [Compound C118, Benzyl (3,3,4-trimethyl-1-oxo-1-(((S)-1-oxo-3-((S)-2-oxopyrrolidin-3-yl)propan-2-yl)amino)pentan-2-yl)carbamate] has a pIC50 of 6.06.
`CC(C)C[C@H](NC(=O)OC(c1ccccc1)C(C)(C)c1cccc(Cl)c1)C(=O)N[C@@H](C[C@@H]1CCNC1=O)C(=O)C(N)=O` (stereo partly drawn) [Compound C207, 2-(3-Chlorophenyl)-2-methyl-1-phenylpropyl ((S)-1-(((S)-4-amino-3,4-dioxo-1-((S)-2-oxopyrrolidin-3-yl)butan-2-yl)amino)-4-methyl-1-oxopentan-2-yl)carbamate] gave a pIC50 of 6.50.
In the case of `COc1cccc2[nH]c(C(=O)N[C@@H](CC3CCCCC3)C(=O)NC(C=O)CC3CC4(CCOCC4)NC3=O)cc12` (stereo partly drawn) [Compound C179, N-((2S)-3-cyclohexyl-1-oxo-1-((1-oxo-3-(2-oxo-8-oxa-1-azaspiro[4.5]decan-3-yl)propan-2-yl)amino)propan-2-yl)-4-methoxy-1H-indole-2-carboxamide], the pIC50 was 10.82.
Work on `CC(C)C[C@H](NC(=O)OC(C)(C)Cc1ccccc1)C(=O)N[C@@H](C[C@@H]1CCNC1=O)C(=O)C(N)=O` [Compound C79] yielded a pIC50 of 5.42.
For `CCOP(=O)(OCC)C(O)[C@H](CCC(=O)N1CCNCc2ccccc21)NC(=O)[C@H](CC1CCCCC1)NC(=O)OCc1cccc(Cl)c1` (stereo partly shown) [Compound C3], the pIC50 was under 3.70.
For `CC1(C)CC(CC(NC(=O)[C@H](CC2CCCCC2)NC(=O)OC(c2ccc(Cl)cc2)C(C)(C)c2cccc(Cl)c2)C(=O)C(=O)NC2CC2)C(=O)N1` (stereo partly shown) [Compound C245], the pIC50 was 5.70.
Molecule `O=C(N[C@@H](CC1CCCCC1)C(=O)N[C@@H](C[C@@H]1CCNC1=O)C(=O)C(=O)NC1CC1)OCc1cccc(Cl)c1` [Compound C173] has a pIC50 of 5.84.
In the case of `CCOP(=O)(OCC)C(O)[C@H](CCC(=O)N1CCN(C(=O)OC(C)(C)C)C(c2ccccc2)C1)NC(=O)[C@H](CC1CCCCC1)NC(=O)OCc1cccc(Cl)c1` (stereo partly drawn) [Compound C1, tert-butyl 4-((4S)-4-((S)-2-((((3-chlorobenzyl)oxy)carbonyl)amino)-3-cyclohexylpropanamido)-5-(diethoxyphosphoryl)-5-hydroxypentanoyl)-2-phenylpiperazine-1-carboxylate], the pIC50 was under 3.70.
`O=C[C@H](CCC(=O)NC1(Cc2ccccc2)CC1)NC(=O)[C@H](CC1CCCCC1)NC(=O)OCc1cccc(Cl)c1` [Compound C33, 3-Chlorobenzyl ((S)-1-(((S)-5-((1-benzylcyclopropyl)amino)-1,5-dioxopentan-2-yl)amino)-3-cyclohexyl-1-oxopropan-2-yl)carbamate] showed a pIC50 of under 3.70.
For `CC(C)C[C@H](NC(=O)OC(c1cccc(Cl)c1)C(C)(C)c1cccc(Cl)c1)C(=O)N[C@@H](C[C@@H]1CCNC1=O)C(=O)C(=O)NC1CC1` (stereo partly shown) [Compound C286], the pIC50 was 7.15.
For `CS(=O)(=O)N1CCC2(CC1)CC(C[C@H](NC(=O)[C@H](CC1CCCCC1)NC(=O)OCc1cccc(Cl)c1)C(=O)C(=O)NC1CC1)C(=O)N2` (stereo partly drawn) [Compound C170, 3-Chlorobenzyl ((2S)-3-cyclohexyl-1-(((2S)-4-(cyclopropylamino)-1-(8-(methylsulfonyl)-2-oxo-1,8-diazaspiro[4.5]decan-3-yl)-3,4-dioxobutan-2-yl)amino)-1-oxopropan-2-yl)carbamate], the pIC50 was 5.74.
With `CC(=O)N1CCC2(CC1)CC(CC(C=O)NC(=O)[C@H](CC1CCCCC1)NC(=O)c1cc3ccccc3[nH]1)C(=O)N2` (stereo partly drawn) [Compound C75, N-((2S)-1-((1-(8-acetyl-2-oxo-1,8-diazaspiro[4.5]decan-3-yl)-3-oxopropan-2-yl)amino)-3-cyclohexyl-1-oxopropan-2-yl)-1H-indole-2-carboxamide] the pIC50 was 8.92.
For `CC(=O)N1CCC2(CC1)CC(CC(C=O)NC(=O)[C@H](CC1CCCCC1)NC(=O)OCc1cccc(Cl)c1)C(=O)N2` (stereo partly drawn) [Compound C32, 3-Chlorobenzyl ((2S)-1-((1-(8-acetyl-2-oxo-1,8-diazaspiro[4.5]decan-3-yl)-3-oxopropan-2-yl)amino)-3-cyclohexyl-1-oxopropan-2-yl)carbamate], the pIC50 was 7.64.
In the case of `O=C(N[C@@H](Cc1ccccc1)C(=O)N[C@@H](C[C@@H]1CCNC1=O)C(=O)C(=O)NC1CC1)OC1CCCC1Cc1cccc(Cl)c1` (stereo partly shown) [Compound C146], the pIC50 was under 4.70.
Work on `CCCCCOC(=O)N[C@@H](CC1CCCCC1)C(=O)N[C@H](C=O)CCC(=O)N1CCOc2ccccc2C1` [Compound C16, Pentyl ((S)-3-cyclohexyl-1-(((S)-5-(2,3-dihydrobenzo[f][1,4]oxazepin-4(5H)-yl)-1,5-dioxopentan-2-yl)amino)-1-oxopropan-2-yl)carbamate] yielded a pIC50 of 4.42.
In the case of `O=C(N[C@@H](CC1CCCCC1)C(=O)N[C@@H](C[C@@H]1CCNC1=O)C(=O)C(=O)NC1CC1)OC(Cc1cccc(Cl)c1)c1cccc(Cl)c1` (stereo partly drawn) [Compound C241, 1,2-Bis(3-chlorophenyl)ethyl ((S)-3-cyclohexyl-1-(((S)-4-(cyclopropylamino)-3,4-dioxo-1-((S)-2-oxopyrrolidin-3-yl)butan-2-yl)amino)-1-oxopropan-2-yl)carbamate], the pIC50 was 5.63.
